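Protocol summary: plate cells (96-well), add compound at 5 concentrations, incubate 48 h, interpolate endpoints linearly. At the GI50, growth is halved.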 Activity calls are given as the source filed them. Cut-off read from the data, not from the text of the source: active = GI50 up to about 1.1 µM and inactive = higher.
Legend:
Assay in all cases: growth of human tumour cells (NCI), 48 h
SN12C = tested on: SN12C
NCI-H460 = tested on: NCI-H460
HL-60 = tested on: HL-60
786-0 = tested on: 786-0
SK-MEL-2 = tested on: SK-MEL-2
MDA-MB-435 = tested on: MDA-MB-435
SK-MEL-28 = tested on: SK-MEL-28
CCRF-CEM = tested on: CCRF-CEM
NCI-H226 = tested on: NCI-H226
SF-268 = tested on: SF-268
SK-OV-3 = tested on: SK-OV-3
K562 = tested on: K562
NCI-H522 = tested on: NCI-H522
T47D = tested on: T47D
HT-29 = tested on: HT-29
ACHN = tested on: ACHN
TK-10 = tested on: TK-10
Hs-578T = tested on: Hs-578T
SNB-75 = tested on: SNB-75
SR = tested on: SR

Measured: GI50

COc1cc(/C=C2\C(=O)N(c3ccccc3Cl)C(c3ccccc3)S2(=O)=O)cc(OC)c1OC (configuration not stated)
inactive: SN12C 20.8 µM | NCI-H460 52.2 µM | HL-60 28.6 µM | 786-0 31.2 µM | SK-MEL-2 44.1 µM | MDA-MB-435 33.3 µM | SK-MEL-28 39 µM | CCRF-CEM 16 µM | NCI-H226 42 µM | SF-268 46.7 µM | SK-OV-3 30.7 µM | K562 22 µM | NCI-H522 20.9 µM | T47D 32.8 µM | HT-29 16.3 µM | ACHN > 100 µM | TK-10 62.7 µM | Hs-578T 46.5 µM

CC(=O)Oc1cc2c(n(C)c1=O)-c1ccccc1C2
inactive: SN12C > 100 µM | NCI-H460 43.8 µM | 786-0 > 100 µM | SNB-75 > 100 µM | SK-MEL-2 > 100 µM | MDA-MB-435 > 100 µM | SK-MEL-28 > 100 µM | CCRF-CEM 34.2 µM | NCI-H226 > 100 µM | SF-268 44.1 µM | SK-OV-3 > 100 µM | K562 > 100 µM | NCI-H522 15.9 µM | T47D > 100 µM | HT-29 78.2 µM | ACHN 32.5 µM | TK-10 51.8 µM | Hs-578T 65 µM

N#Cc1c(-c2ccccc2)nc(-c2ccccc2)sc1=S
inactive: SN12C > 100 µM | NCI-H460 > 100 µM | HL-60 > 100 µM | 786-0 > 100 µM | SNB-75 > 100 µM | SK-MEL-2 > 100 µM | MDA-MB-435 > 100 µM | SK-MEL-28 > 100 µM | CCRF-CEM 49.2 µM | NCI-H226 > 100 µM | SF-268 > 100 µM | SK-OV-3 > 100 µM | K562 > 100 µM | T47D > 100 µM | HT-29 > 100 µM | ACHN > 100 µM | TK-10 > 100 µM | Hs-578T > 100 µM

Fc1cc(F)c(F)c(S)c1F
inactive: SN12C 20.4 µM | NCI-H460 > 100 µM | HL-60 30.1 µM | 786-0 > 100 µM | SNB-75 > 100 µM | SK-MEL-2 > 100 µM | MDA-MB-435 > 100 µM | SK-MEL-28 > 100 µM | CCRF-CEM 29.5 µM | NCI-H226 > 100 µM | SF-268 77.3 µM | SK-OV-3 65.6 µM | K562 57.4 µM | NCI-H522 15.5 µM | T47D > 100 µM | HT-29 92.9 µM | ACHN > 100 µM | TK-10 > 100 µM | Hs-578T 37.5 µM

COc1ccc(/C=N/n2c(Cc3ccc(Cl)cc3)n[nH]c2=O)c(OC)c1
inactive: SN12C > 10 µM | NCI-H460 > 100 µM | 786-0 22.4 µM | SNB-75 15.9 µM | SK-MEL-2 53 µM | MDA-MB-435 36.8 µM | SK-MEL-28 80 µM | CCRF-CEM > 100 µM | NCI-H226 29.9 µM | SF-268 13.5 µM | SK-OV-3 26.1 µM | K562 > 100 µM | NCI-H522 16 µM | T47D 69 µM | HT-29 24.9 µM | ACHN 44.7 µM | TK-10 18.2 µM | Hs-578T 14.3 µM

O=C(N/N=C(COc1cccc(Cl)c1)\N=C\c1cccnc1)c1ccncc1
inactive: SN12C > 100 µM | NCI-H460 > 100 µM | HL-60 > 100 µM | 786-0 > 100 µM | SNB-75 18.5 µM | SK-MEL-2 > 100 µM | MDA-MB-435 > 100 µM | SK-MEL-28 > 100 µM | CCRF-CEM > 100 µM | NCI-H226 93.5 µM | SF-268 > 100 µM | SK-OV-3 > 100 µM | K562 > 100 µM | NCI-H522 63.7 µM | T47D 32.5 µM | HT-29 > 100 µM | ACHN 91.2 µM | TK-10 > 100 µM | Hs-578T 83.4 µM

CC1(C(=O)O)CCCC1C(=O)O (configuration not stated)
inactive: SN12C > 100 µM | NCI-H460 > 100 µM | HL-60 > 100 µM | 786-0 > 100 µM | SK-MEL-2 > 100 µM | SK-MEL-28 > 100 µM | CCRF-CEM > 100 µM | NCI-H226 > 100 µM | SF-268 > 100 µM | K562 > 100 µM | NCI-H522 > 100 µM | T47D > 100 µM | HT-29 > 100 µM | ACHN > 100 µM | TK-10 > 100 µM | Hs-578T > 100 µM

C=CCc1oc(C)nc1CCCC
inactive: SN12C > 100 µM | NCI-H460 > 100 µM | HL-60 > 100 µM | 786-0 > 100 µM | SNB-75 > 100 µM | MDA-MB-435 > 100 µM | SK-MEL-28 > 100 µM | CCRF-CEM > 100 µM | NCI-H226 > 100 µM | SF-268 > 100 µM | SK-OV-3 > 100 µM | K562 > 100 µM | NCI-H522 > 100 µM | T47D > 100 µM | HT-29 > 100 µM | ACHN > 100 µM | TK-10 > 100 µM | Hs-578T > 100 µM

O=S(=O)(O)c1ccc(/N=N/c2ccc(/N=N/c3c(O)c(S(=O)(=O)O)cc4cc(S(=O)(=O)O)ccc34)cc2)cc1
inactive: SN12C > 100 µM | NCI-H460 > 100 µM | HL-60 > 100 µM | 786-0 > 100 µM | SK-MEL-2 > 100 µM | MDA-MB-435 > 100 µM | SK-MEL-28 > 100 µM | CCRF-CEM > 100 µM | NCI-H226 > 100 µM | SF-268 > 100 µM | SK-OV-3 > 100 µM | K562 > 100 µM | NCI-H522 > 100 µM | T47D > 100 µM | HT-29 > 100 µM | ACHN > 100 µM | TK-10 > 100 µM | Hs-578T > 100 µM

O=c1c2cc([N+](=O)[O-])ccc2n2n1CCCCC2
inactive: SN12C > 100 µM | NCI-H460 > 100 µM | HL-60 > 100 µM | 786-0 > 100 µM | SNB-75 > 100 µM | MDA-MB-435 > 100 µM | SK-MEL-28 > 100 µM | CCRF-CEM > 100 µM | NCI-H226 > 100 µM | SF-268 > 100 µM | SK-OV-3 > 100 µM | K562 > 100 µM | NCI-H522 > 100 µM | SR > 100 µM | HT-29 > 100 µM | ACHN > 100 µM | TK-10 61.8 µM | Hs-578T > 100 µM

O=c1c(C(c2ccc([N+](=O)[O-])cc2)c2c(O)oc3ccccc3c2=O)c(O)oc2ccccc12
inactive: SN12C > 100 µM | NCI-H460 > 100 µM | HL-60 > 100 µM | 786-0 > 100 µM | SNB-75 86.5 µM | SK-MEL-2 > 100 µM | MDA-MB-435 > 100 µM | SK-MEL-28 > 100 µM | CCRF-CEM > 100 µM | NCI-H226 > 100 µM | SF-268 > 100 µM | K562 10 µM | NCI-H522 > 100 µM | T47D > 100 µM | HT-29 > 100 µM | TK-10 > 100 µM | Hs-578T > 100 µM
